Patent publication US8476081B2, “Assay for evaluating affinity and specificity of ligand-albumin binding” (Janssen Pharmaceutica NV, priority 2009, dated 2013)
Read-outs that look alike come from different tables or passages of the source. Each block holds one compound with its values, some of them ahead of it.

Assays:
[1] = target: T1, Mouse Serum Albumin (Mus musculus, UniProt P07724); assay: ThermoFluor thermal shift assay with mouse serum albumin; format: binding
T1 construct: The above albumins were prepared using method IV of Cohn et al. (J. Am. Chem. Soc. 69: 1753-1761, 1947) and purified with 1× crystallization; purchased Sigma A-3559
Description: (§1) To evaluate the bioavailability of a compound in various species, the compound's affinity and specificity to albumins from human, bovine, rat, and mouse were examined. […] The resulting 1× reaction mixture comprising human serum albumin, bovine serum albumin, rat serum albumin, or mouse serum albumin was used with a panel of compounds in the binding assay.

[2] = target: T2, Bovine Serum Albumin (BSA) (Bos taurus, UniProt P02769); assay: ThermoFluor thermal shift assay with bovine serum albumin; format: binding
T2 construct: The above albumins were prepared using method IV of Cohn et al. (J. Am. Chem. Soc. 69: 1753-1761, 1947) and purified with 1× crystallization; purchased Sigma A-7638
Description: as §1

[3] = target: Human Serum Albumin (HSA) (Homo sapiens, UniProt P02768); assay: ThermoFluor thermal shift assay with human serum albumin
Protocol: (§2) 1× reaction mixture of about 50 μg/mL human serum albumin, about 4 μM 1,8-ANS, about 150 mM NaCl, about 25 mM PIPES, pH 7.2, and about 0.002% Tween®-20 was prepared.
(§3) To prevent evaporation, about 1 μL of silicone oil was added to the plate using multichannel pipettors.
The plates were loaded onto a ThermoFluor® device and heated from about 25° C. to about 95° C. at a ramp-rate of about 1° C. per minute. Fluorescence was measured by continuous illumination with UV light (Hamamatsu LC6) via fiber optic and filtered through a band-pass filter of about 390±10 nm; >6 OD cutoff. Fluorescence emissions were detected by measuring light intensity using a CCD camera (Sensys, Roper Scientific) filtered to detect about 500±25 nm; >6 OD cutoff. This allows for the entire plate to be simultaneously monitored and each sample to be independently monitored. One or more images were collected at an interval of every about 0.5° C. to about 1° C. The sum of the pixel intensity at a given area of the plate was recorded vs. temperature.
(§4) The values of Tm, ΔH, yF,Tm, mF, yU,Tm and mU were calculated for each sample according to Equation 9. Further, the value of Tm over the compound concentration was used to calculate the binding constant (KD) using Equation 10b. A shift in the denaturation curve of albumin indicates whether the compound binds to albumin, and the value of KD indicates the binding strength of compounds to albumin. A shift of the fluorescence signal indicates the specificity of compounds to albumin, and the value of IC50 indicates the binding strength to the site I (Equation 11).
(§5) The compounds and 1× reaction mixture were dispensed and measured for the fluorescence value using the plate-based reader Tecan® Safire II. Then the plate was heated in a ThermoFluor® system and measured for fluorescence value and the thermal shift value. The fluorescence values were measured twice by both plate reader and ThermoFluor®. The fluorescence value obtained from ThermoFluor® was used for qualitative assessment whereas those from the plate reader was used for quantitative assessment. The value of IC50 was determined by the fluorescence obtained from the plate reader and was fit using Equation 11 described above. The value of KD was determined by the readings from ThermoFluor® and was fit using Equation 10b described above.

[4] = target: Human Serum Albumin (HSA) site I (Homo sapiens, UniProt P02768); assay: 1,8-ANS site-specific probe displacement (fluorescence) from HSA site I; conditions: for % Displacement: percent displacement of the site-specific probe 1,8-ANS at the second highest concentration of test ligand; for Fluorescent Signal: initial 1,8-ANS fluorescence as % of fluorescence without compound
Description: In addition to the thermal shift assay, the assay test plate may be utilized in a separate fluorescence measurement using a plate-based reader that is compatible with any relevant wavelengths. The preferred plate-based reader is Tecan Satire II. The displacement of site-specific probe such as 1,8-ANS from albumin site 1 by test ligand may cause a decrease in observed fluorescence that may be fit to Equation 11 to determine the value of IC50.
Additionally, the percent displacement may be determined by (y−yhigh), divided by the difference of low (y0) and high endpoints (yhigh), wherein y is determined at the second highest concentration.
as §2, §3, §4, §5

[5] = target: T3, Rat Serum Albumin (Rattus norvegicus, UniProt P02770); assay: ThermoFluor thermal shift assay with rat serum albumin; format: binding
T3 construct: The above albumins were prepared using method IV of Cohn et al. (J. Am. Chem. Soc. 69: 1753-1761, 1947) and purified with 1× crystallization; purchased Sigma A-6414
Description: as §1

[6] = target: HSA (Homo sapiens, UniProt P02768); conditions: binding site on HSA from previous reports; cited from earlier work
[7] = Human Albumin (KD), Example 4, Table 3
[8] = classified from KD versus IC50 and % displacement of 1,8-ANS
[9] = HSA - KD, Example 3, Table 2, ThermoFluor, Equation 10b

T3 sequence (P02770 25-608): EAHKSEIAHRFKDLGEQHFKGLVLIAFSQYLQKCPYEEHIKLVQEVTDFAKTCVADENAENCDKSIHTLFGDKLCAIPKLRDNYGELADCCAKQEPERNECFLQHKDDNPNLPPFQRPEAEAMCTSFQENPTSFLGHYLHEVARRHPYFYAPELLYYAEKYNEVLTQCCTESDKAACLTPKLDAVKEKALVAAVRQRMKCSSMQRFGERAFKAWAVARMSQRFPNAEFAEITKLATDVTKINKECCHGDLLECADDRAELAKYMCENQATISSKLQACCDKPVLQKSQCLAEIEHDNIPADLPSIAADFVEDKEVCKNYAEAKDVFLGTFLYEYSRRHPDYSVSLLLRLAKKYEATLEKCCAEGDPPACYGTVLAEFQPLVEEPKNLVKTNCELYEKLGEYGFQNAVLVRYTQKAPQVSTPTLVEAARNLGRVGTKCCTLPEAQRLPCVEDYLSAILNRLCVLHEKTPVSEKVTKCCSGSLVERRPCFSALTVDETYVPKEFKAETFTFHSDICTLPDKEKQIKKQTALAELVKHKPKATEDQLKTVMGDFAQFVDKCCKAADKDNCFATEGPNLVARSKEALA
T2 sequence (P02769 25-607): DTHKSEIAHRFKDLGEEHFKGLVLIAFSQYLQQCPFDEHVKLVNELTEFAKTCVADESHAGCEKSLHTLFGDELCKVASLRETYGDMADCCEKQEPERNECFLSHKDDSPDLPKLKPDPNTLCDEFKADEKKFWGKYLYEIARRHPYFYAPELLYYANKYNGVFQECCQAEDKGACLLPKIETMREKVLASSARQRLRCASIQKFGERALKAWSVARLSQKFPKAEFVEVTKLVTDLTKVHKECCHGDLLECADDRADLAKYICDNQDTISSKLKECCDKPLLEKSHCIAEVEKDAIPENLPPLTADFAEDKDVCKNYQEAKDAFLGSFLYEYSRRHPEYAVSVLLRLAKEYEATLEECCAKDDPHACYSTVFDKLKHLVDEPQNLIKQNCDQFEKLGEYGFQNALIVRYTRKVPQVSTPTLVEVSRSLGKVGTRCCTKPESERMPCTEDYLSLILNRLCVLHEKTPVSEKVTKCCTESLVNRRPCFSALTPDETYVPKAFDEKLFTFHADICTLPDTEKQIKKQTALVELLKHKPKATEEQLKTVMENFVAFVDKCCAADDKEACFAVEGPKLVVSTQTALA
HSA, sequence (P02768 25-609): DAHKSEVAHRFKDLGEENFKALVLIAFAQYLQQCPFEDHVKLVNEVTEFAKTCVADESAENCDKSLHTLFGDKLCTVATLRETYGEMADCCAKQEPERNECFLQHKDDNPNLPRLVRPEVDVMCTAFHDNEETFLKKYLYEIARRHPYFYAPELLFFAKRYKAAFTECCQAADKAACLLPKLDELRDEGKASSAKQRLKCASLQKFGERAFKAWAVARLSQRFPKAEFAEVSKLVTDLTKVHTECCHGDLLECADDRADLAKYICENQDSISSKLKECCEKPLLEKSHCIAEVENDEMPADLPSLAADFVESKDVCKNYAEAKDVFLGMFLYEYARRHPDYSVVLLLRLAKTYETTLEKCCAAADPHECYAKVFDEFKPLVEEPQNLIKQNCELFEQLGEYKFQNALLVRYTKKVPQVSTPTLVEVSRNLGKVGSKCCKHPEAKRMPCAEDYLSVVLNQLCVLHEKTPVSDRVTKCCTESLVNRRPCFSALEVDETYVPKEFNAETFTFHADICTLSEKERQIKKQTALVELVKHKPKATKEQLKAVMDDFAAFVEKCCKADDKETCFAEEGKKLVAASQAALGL
Human Serum Albumin (HSA), sequence (P02768 25-609): as above
Human Serum Albumin (HSA) site I, sequence (P02768 25-609): as above
T1 sequence (P07724 25-608): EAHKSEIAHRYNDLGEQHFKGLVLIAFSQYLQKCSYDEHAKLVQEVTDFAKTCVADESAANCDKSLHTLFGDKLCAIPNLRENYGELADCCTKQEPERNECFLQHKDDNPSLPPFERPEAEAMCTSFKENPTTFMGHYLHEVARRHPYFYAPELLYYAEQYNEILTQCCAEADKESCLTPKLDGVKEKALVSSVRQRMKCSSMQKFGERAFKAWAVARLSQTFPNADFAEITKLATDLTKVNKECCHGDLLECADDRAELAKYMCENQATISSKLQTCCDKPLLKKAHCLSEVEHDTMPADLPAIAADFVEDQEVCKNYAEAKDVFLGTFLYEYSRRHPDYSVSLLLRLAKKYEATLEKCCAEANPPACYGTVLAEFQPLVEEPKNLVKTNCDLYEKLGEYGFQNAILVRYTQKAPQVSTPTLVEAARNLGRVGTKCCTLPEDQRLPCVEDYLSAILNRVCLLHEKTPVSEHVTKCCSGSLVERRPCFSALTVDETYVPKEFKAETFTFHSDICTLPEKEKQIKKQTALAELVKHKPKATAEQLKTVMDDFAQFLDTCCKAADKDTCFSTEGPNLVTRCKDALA

Kd ([1]; Example 4, Table 3): > 62.5 µM
Kd ([2]; Example 4, Table 3): > 62.5 µM
Kd [3, 7]: > 62.5 µM
% Displacement [4]: (10) %
Kd ([5]; Example 4, Table 3): > 62.5 µM
SMILES: CCOC(=O)C(C)(C)Oc1ccc(Cl)cc1 [Clofibrate, clofibrate]

Kd ([1]; Example 4, Table 3): > 120 µM
Kd ([2]; Example 4, Table 3): 85.4 µM
Kd [3, 7]: 55.7 µM
% Displacement [4]: (11) %
Kd ([5]; Example 4, Table 3): > 120 µM
SMILES: C=CC1=C(C)/C(=C/c2[nH]c(Cc3[nH]c(/C=C4\NC(=O)C(C)=C4C=C)c(C)c3CCC(=O)O)c(CCC(=O)O)c2C)NC1=O [Bilirubin, bilirubin]

Kd ([1]; Example 4, Table 3): > 62.5 µM
Kd ([2]; Example 4, Table 3): > 62.5 µM
Kd [3, 7]: > 62.5 µM
Type of HSA Binding Interaction [3, 8]: Type 4
% Displacement [4]: (40) %
Kd ([5]; Example 4, Table 3): > 62.5 µM
SMILES: Nc1ccc(S(=O)(=O)Nc2nccs2)cc1 [Sulfathiazole, sulfathiazole]
Reported Binding Site [6]: Site 1

SMILES: N[C@@H](Cc1c[nH]c2ccccc12)C(=O)O [L-Tryptophan, L-tryptophan]
Kd [1]: > 62.5 µM
Kd [2]: > 62.5 µM
Type of HSA Binding Interaction [3]: Type 5
Kd ([3]; Human Albumin (KD)): > 62.5 µM
Kd [5]: > 62.5 µM
Reported Binding Site [6]: Multiple sites

SMILES: c1ccc2c(c1)[nH]c1cnccc12 [Norharmane, norharmane]
Kd ([1]; Example 4, Table 3): > 62.5 µM
Kd ([2]; Example 4, Table 3): > 62.5 µM
Type of HSA Binding Interaction [3]: Type 5
Kd [3, 9]: 17.6 µM
Kd [3, 7]: 17.6 µM
Kd ([5]; Example 4, Table 3): > 62.5 µM
Reported Binding Site [6]: Site 2

Kd ([1]; Example 4, Table 3): > 62.5 µM
Kd ([2]; Example 4, Table 3): > 62.5 µM
Kd [3, 7]: > 62.5 µM
Type of HSA Binding Interaction [3, 8]: Type 4
% Displacement [4]: (12) %
Kd ([5]; Example 4, Table 3): > 62.5 µM
SMILES: NS(=O)(=O)c1cc2c(cc1Cl)N=CNS2(=O)=O [Chlorothiazide, chlorothiazide]
Reported Binding Site [6]: Site 2

Kd ([1]; Example 4, Table 3): 3.79 µM
Kd ([2]; Example 4, Table 3): 1.88 µM
Kd [3, 9]: 2.1 µM
Kd [3, 7]: 2.1 µM
Kd ([3]; KD, Example 2, Table 1, from Tm over compound concentration (Equation 10b)): 2.7 µM
Type of HSA Binding Interaction [3, 8]: Type 3
HSA Tm ([3]; compound 0.244 μM): 74.4 °C
HSA Tm ([3]; compound 0.488 μM): 74.1 °C
HSA Tm ([3]; compound 0.977 μM): 74.3 °C
HSA Tm ([3]; compound 1.95 μM): 74.4 °C
HSA Tm ([3]; compound 3.91 μM): 75.0 °C
HSA Tm ([3]; compound 7.81 μM): 75.1 °C
HSA Tm ([3]; compound 15.6 μM): 75.7 °C
HSA Tm ([3]; compound 31.3 μM): 76.1 °C
HSA Tm ([3]; compound 62.5 μM): 76.8 °C
HSA Tm ([3]; compound 125 μM): 78.2 °C
HSA Tm ([3]; compound 250 μM): 80.2 °C
IC50 [4]: 154 µM
Binding to site I of albumin as indicated by 1,8-ANS fluorescence ([4]; Example 2, dose-dependent change of initial fluorescence): does not bind to site I
Fluorescent Signal ([4]; compound 0.244 μM): 110%
Fluorescent Signal ([4]; compound 0.488 μM): 105%
Fluorescent Signal ([4]; compound 0.977 μM): 102%
Fluorescent Signal ([4]; compound 1.95 μM): 104%
Fluorescent Signal ([4]; compound 3.91 μM): 118%
Fluorescent Signal ([4]; compound 7.81 μM): 106%
Fluorescent Signal ([4]; compound 15.6 μM): 111%
Fluorescent Signal ([4]; compound 31.3 μM): 108%
Fluorescent Signal ([4]; compound 62.5 μM): 101%
Fluorescent Signal ([4]; compound 125 μM): 109%
Fluorescent Signal ([4]; compound 250 μM): 105%
% Displacement [4]: (47) %
Kd ([5]; Example 4, Table 3): 2.93 µM
SMILES: CC(C(=O)O)c1ccc(-c2ccccc2)c(F)c1 (stereo not shown) [Flurbiprofen, flurbiprofen]
Reported Binding Site [6]: Site 2

Kd ([1]; Example 4, Table 3): > 62.5 µM
Kd ([2]; Example 4, Table 3): > 62.5 µM
Kd [3, 7]: > 62.5 µM
% Displacement [4]: (31) %
Kd ([5]; Example 4, Table 3): > 62.5 µM
SMILES: CCCC(CCC)C(=O)O [Valproate, valproate]

Kd ([1]; Example 4, Table 3): 0.758 µM
Kd ([2]; Example 4, Table 3): 1.3 µM
Kd [3]: 0.633 µM
Type of HSA Binding Interaction [3, 8]: Type 3
IC50 [4]: 7.45 µM
% Displacement [4]: (83) %
Kd ([5]; Example 4, Table 3): 0.96 µM
SMILES: CCC(Cc1c(I)cc(I)c(N)c1I)C(=O)O (stereo not shown) [Iodopanoate, iodopanoate]
Reported Binding Site [6]: Site 2

Kd ([1]; Example 4, Table 3): 69.5 µM
Kd ([2]; Example 4, Table 3): > 62.5 µM
Kd [3, 7]: > 62.5 µM
Type of HSA Binding Interaction [3, 8]: Type 1
IC50 [4]: 96 µM
% Displacement [4]: (71) %
Kd ([5]; Example 4, Table 3): 9.4 µM
SMILES: COc1cc(NS(=O)(=O)c2ccc(N)cc2)nc(OC)n1 [Sulfadimethoxine, sulfadimethoxine]
Reported Binding Site [6]: Site 1

Kd ([1]; Example 4, Table 3): > 62.5 µM
Kd ([2]; Example 4, Table 3): > 62.5 µM
Kd [3, 9]: 13 µM
Kd [3, 7]: 13 µM
IC50 [4]: 35.5 µM
% Displacement [4]: (84) %
Kd ([5]; Example 4, Table 3): 33.8 µM
SMILES: CN1C(C(=O)Nc2ccccn2)=C(O)c2sccc2S1(=O)=O [Tenoxicam, tenoxicam]

Kd ([1]; Example 4, Table 3): 110 µM
Kd ([2]; Example 4, Table 3): 41.7 µM
Kd [3, 9]: 82 µM
Kd [3, 7]: 34.7 µM
Type of HSA Binding Interaction [3, 8]: Type 4
% Displacement [4]: (20) %
Kd ([5]; Example 4, Table 3): 29.6 µM
SMILES: CCCNC(=O)NS(=O)(=O)c1ccc(Cl)cc1 [Chlorpropamide, chlorpropamide]
Reported Binding Site [6]: Site 1

Kd ([1]; Example 4, Table 3): > 62.5 µM
Kd [3, 9]: 7.9 µM
Kd [3, 7]: > 62.5 µM
Type of HSA Binding Interaction [3, 8]: Type 1
IC50 [4]: 25 µM
% Displacement [4]: (51) %
% Displacement ([4]; listed as quercetin): about 51%
Kd ([5]; Example 4, Table 3): > 62.5 µM
SMILES: O=c1c(O)c(-c2ccc(O)c(O)c2)oc2cc(O)cc(O)c12 [Quercetin, quercetin]
Reported Binding Site [6]: Site 1

Kd ([1]; Example 4, Table 3): 1.09 µM
Kd ([2]; Example 4, Table 3): 2.91 µM
Kd [3, 9]: 2.1 µM
Kd [3, 7]: 2.1 µM
Type of HSA Binding Interaction [3, 8]: Type 3
IC50 [4]: 8.39 µM
% Displacement [4]: (87) %
Kd ([5]; Example 4, Table 3): 1.53 µM
SMILES: CC(C(=O)O)c1ccc2c(c1)[nH]c1ccc(Cl)cc12 (stereo not shown) [Carprofen, carprofen]
Reported Binding Site [6]: Site 2

Kd ([1]; Example 4, Table 3): 0.05 µM
Kd ([2]; Example 4, Table 3): 0.066 µM
Kd [3]: 0.044 µM
Type of HSA Binding Interaction [3, 8]: Type 1
IC50 [4]: 0.711 µM
% Displacement [4]: (129) %
Kd ([5]; Example 4, Table 3): 0.048 µM
SMILES: CCC(Cc1c(I)cc(I)c(O)c1I)C(=O)O (stereo not shown) [Iophenoxate, iophenoxate]
Reported Binding Site [6]: Site 1

Kd ([1]; Example 4, Table 3): > 62.5 µM
Kd ([2]; Example 4, Table 3): > 62.5 µM
Kd [3, 7]: 39.5 µM
Type of HSA Binding Interaction [3, 8]: Type 4
% Displacement [4]: (33) %
Kd ([5]; Example 4, Table 3): > 62.5 µM
SMILES: C[C@]12CCC(=O)C=C1C=C[C@@H]1[C@@H]2CC[C@@]2(C)[C@H]1CC[C@@]2(O)CCC(=O)O [Canrenoate, canrenoate]
Reported Binding Site [6]: Site 1
